According to US10745401B2, “Condensed lactam derivative” (Sumitomo Dainippon Pharma Co., Ltd., priority 2018, dated 2020):

Tests used:
[1] = biological target: T1, human 5-HT1A receptor (Homo sapiens (Human), UniProt P08908); experiment: Test 1: binding activity for human 5-HT1A receptor ([3H]8-OH-DPAT, CHO cell membrane fraction)
Outline: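 Membranes incubated with [3H]8-OH-DPAT and compound for 60 min at room temperature, then filtered on polyethylenimine-coated glass-fibre plates and counted by liquid scintillation. IC50 from Hill analysis; Ki = IC50/(1+S/Kd), Kd from saturation binding on the same membranes.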

[2] = biological target: human D2 receptor (Homo sapiens (Human), UniProt P14416); experiment: Test 1: binding activity for human D2 receptor ([3H]Spiperone, CHO cell membrane fraction); details: for Ki: human D2 receptor, [3H]Spiperone; for D2 Ki/5-HT1A Ki / D2 Ki/5-HT2A Ki: selectivity ratio
Outline: (§1)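 CHO-cell membranes with [3H]ketanserin (5-HT2A) or [3H]spiperone (D2) were incubated with compound for 60 min at room temperature, then filtered, and bound radioactivity was counted by scintillation. Ki = IC50/(1+S/Kd), with ligand Kd from saturation binding on the same membranes.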

[3] = biological target: T1, human 5-HT1A receptor; experiment: Test 2: agonist activity for human 5-HT1A receptor ([35S]GTPγS binding); type: biochemical; details: for EC50: [35S]GTPγS binding, concentration at which half the activity of Emax was obtained; for Emax at 10 µM: agonist activity in the presence of 10 μM of compound, relative to 100 μmol/L 5-HT
Outline: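 Membranes from CHO cells expressing human 5-HT1A incubated with compound, GDP-containing buffer and [35S]GTPγS for 60 min at room temperature. Bound radioactivity collected by glass-fibre filtration and counted by liquid scintillation; agonist activity derived from a formula.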

[4] = Test 4: metabolic stability test in human hepatic microsome; type: in vitro ADME; details: 0.1 mg/mL microsome, 0.1 μmol/L compound, 37° C., 30 minutes
Outline: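 Compound at 0.1 μmol/L incubated 30 min at 37° C with human liver microsomes (0.1 mg/mL) and NADPH (3.2 mmol/L) in 25 mmol/L phosphate buffer, pH 7.4. Residual compound measured by LC-MS; stability (mL/min/mg protein) = −LN(residual ratio)/30/0.1.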

[5] = Test 5: predictive test of human half-life (monkey distribution volume, serum unbound fraction, microsomal stability); type: in vivo; details: predicted from cynomolgus monkey distribution volume (i.v.), serum unbound fraction and human hepatic microsome stability
Description: Test 5: Predictive Test of Human Half-Life
The present compound was intravenously administered to cynomolgus monkey as an aqueous solution in 0.01 mol/L hydrochloric acid. Blood was collected on 5 minutes, 15 minutes, 30 minutes, 1 hour, 2 hours, 4 hours, 6 hours, and 24 hours after the administration. Plasma was obtained from the collected blood, the drug concentration in the plasma was measured by LC-MS, and the distribution volume of monkey was calculated from the transition of the concentration.
The unbound fraction rate of the present compound in human or monkey serum was measured by equilibrium dialysis method.
The half-life in human was calculated according to the following formula using the results of the distribution volume of monkey, the unbound fraction rate in human or monkey serum, and the metabolic stability in human hepatic microsome obtained in Test 3.

[6] = biological target: hERG channel (Homo sapiens (Human), UniProt Q12809); experiment: Test 6-1: inhibitory activity for hERG channel (auto patch clamp, Qpatch); type: cell-based; details: for IC50: whole cell auto patch clamp, hERG-CHO cells, read-out: hERG inhibition IC50; for hERG inhibition IC50 (nmol/L)/5-HT1A Ki (nmol/L): ratio of hERG IC50 to 5-HT1A Ki; for hERG inhibition IC50 (nmol/L)/5-HT2A Ki (nmol/L): ratio of hERG IC50 to 5-HT2A Ki
Outline: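 Whole-cell patch clamp on an automated system using CHO cells stably expressing human hERG (IKr); 15 s pulse interval. Four increasing compound concentrations applied cumulatively; mean peak tail current from last 3 stimulations per concentration used. IC50 from inhibition versus pre-compound current, fitted by Hill equation.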

[7] = biological target: T2, human 5-HT2A receptor (Homo sapiens (Human), UniProt P28223); experiment: Test 1: binding activity for human 5-HT2A receptor ([3H]Ketanserin, CHO cell membrane fraction)
Outline: as §1

[8] = biological target: T2, human 5-HT2A receptor; experiment: Test 3: antagonist activity for human 5-HT2A receptor (aequorin luminescence, CHO-K1 cells); type: cell-based; details: CHO-K1 cells, 1 nmol/L 5-HT
Outline: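 CHO-K1 cells transiently co-expressing aequorin, Gα16 and receptor; compound in DMSO added and luminescence recorded on FDSS/μCELL.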

[9] = biological target: P-gp (MDR1) (Homo sapiens (Human), UniProt P08183); experiment: Test 9: P-gp substrate property (NFR, MDCKII and MDR1-MDCKII cells); type: in vitro ADME; details: Net Flux Ratio, MDR1-MDCKII vs MDCKII cells
Description: […]
NFR (Net Flux Ratio), which is an index of P-gp substrate property, can be calculated as follows. MDCKII (Madin-Darby canine kidney strain II) cells and MDR1-MDCKII cells in which MDR1 (multidrug resistance protein 1) was overexpressed were used to measure an apparent permeability coefficient (Papp A-B) from lumen (A) to basement membrane (B) and an apparent permeability coefficient (Papp B-A) from basement membrane (B) to lumen (A) of both MDCKII cells and MDR1-MDCKII cells. NFR (Net Flux Ratio) was calculated from the ratio between Ratio (Papp B-A/Papp A-B) of an apparent permeability coefficient of MDR1-MDCKII cells and Ratio of an apparent permeability coefficient of MDCKII cells.

human D2 receptor, sequence (P14416 whole entry): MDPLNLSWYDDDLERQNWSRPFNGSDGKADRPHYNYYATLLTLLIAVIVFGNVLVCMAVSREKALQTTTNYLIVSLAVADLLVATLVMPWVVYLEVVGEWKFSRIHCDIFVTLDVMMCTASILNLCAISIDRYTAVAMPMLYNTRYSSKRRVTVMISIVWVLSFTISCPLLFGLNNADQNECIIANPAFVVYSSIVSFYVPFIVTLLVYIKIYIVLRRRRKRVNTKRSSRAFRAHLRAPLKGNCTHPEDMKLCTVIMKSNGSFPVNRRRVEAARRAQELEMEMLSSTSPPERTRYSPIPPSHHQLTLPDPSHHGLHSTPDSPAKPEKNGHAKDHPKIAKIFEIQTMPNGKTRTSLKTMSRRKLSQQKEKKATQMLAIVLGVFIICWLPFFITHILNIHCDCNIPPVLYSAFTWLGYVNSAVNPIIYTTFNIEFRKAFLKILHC
P-gp (MDR1), sequence (P08183 whole entry, species assumed): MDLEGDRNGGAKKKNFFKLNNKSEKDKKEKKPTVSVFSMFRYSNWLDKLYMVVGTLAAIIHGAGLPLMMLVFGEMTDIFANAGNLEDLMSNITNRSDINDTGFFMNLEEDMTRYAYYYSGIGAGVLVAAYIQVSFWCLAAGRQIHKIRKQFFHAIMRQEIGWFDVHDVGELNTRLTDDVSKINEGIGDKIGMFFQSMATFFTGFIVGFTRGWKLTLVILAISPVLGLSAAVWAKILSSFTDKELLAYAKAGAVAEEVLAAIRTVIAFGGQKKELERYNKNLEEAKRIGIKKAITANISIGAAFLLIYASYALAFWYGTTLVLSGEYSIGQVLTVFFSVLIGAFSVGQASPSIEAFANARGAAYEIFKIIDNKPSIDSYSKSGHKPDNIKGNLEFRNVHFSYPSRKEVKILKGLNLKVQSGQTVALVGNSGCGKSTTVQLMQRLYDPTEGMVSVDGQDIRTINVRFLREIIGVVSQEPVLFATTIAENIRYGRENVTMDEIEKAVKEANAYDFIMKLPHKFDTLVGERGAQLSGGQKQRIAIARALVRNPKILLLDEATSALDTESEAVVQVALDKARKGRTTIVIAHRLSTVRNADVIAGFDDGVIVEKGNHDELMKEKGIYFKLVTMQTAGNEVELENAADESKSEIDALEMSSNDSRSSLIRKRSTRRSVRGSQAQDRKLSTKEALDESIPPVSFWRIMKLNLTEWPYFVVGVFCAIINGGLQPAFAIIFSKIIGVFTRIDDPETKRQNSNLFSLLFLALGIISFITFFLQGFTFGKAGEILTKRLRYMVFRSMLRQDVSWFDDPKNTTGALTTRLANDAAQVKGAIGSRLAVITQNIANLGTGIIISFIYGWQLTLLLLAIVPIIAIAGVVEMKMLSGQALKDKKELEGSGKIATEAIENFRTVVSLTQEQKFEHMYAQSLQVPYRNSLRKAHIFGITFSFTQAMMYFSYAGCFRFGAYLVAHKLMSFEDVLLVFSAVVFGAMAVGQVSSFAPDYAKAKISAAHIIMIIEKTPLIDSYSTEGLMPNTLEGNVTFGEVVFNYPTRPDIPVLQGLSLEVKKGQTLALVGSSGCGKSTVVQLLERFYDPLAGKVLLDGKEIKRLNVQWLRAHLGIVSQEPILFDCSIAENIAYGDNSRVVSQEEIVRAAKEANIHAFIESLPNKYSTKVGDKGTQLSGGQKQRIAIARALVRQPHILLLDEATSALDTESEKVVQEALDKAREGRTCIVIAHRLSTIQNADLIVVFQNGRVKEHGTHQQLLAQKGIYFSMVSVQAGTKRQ
T1 sequence (P08908 whole entry): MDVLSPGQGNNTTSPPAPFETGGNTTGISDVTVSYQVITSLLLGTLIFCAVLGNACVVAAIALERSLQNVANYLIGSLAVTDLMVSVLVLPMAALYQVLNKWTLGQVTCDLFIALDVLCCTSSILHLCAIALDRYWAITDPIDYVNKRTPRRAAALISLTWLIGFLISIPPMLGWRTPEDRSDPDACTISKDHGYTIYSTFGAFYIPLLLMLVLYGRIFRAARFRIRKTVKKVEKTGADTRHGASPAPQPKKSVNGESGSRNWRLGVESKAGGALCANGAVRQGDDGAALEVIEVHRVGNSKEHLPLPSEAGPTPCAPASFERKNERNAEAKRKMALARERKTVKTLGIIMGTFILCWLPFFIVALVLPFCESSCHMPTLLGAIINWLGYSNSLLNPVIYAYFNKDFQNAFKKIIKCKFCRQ
T2 sequence (P28223 whole entry): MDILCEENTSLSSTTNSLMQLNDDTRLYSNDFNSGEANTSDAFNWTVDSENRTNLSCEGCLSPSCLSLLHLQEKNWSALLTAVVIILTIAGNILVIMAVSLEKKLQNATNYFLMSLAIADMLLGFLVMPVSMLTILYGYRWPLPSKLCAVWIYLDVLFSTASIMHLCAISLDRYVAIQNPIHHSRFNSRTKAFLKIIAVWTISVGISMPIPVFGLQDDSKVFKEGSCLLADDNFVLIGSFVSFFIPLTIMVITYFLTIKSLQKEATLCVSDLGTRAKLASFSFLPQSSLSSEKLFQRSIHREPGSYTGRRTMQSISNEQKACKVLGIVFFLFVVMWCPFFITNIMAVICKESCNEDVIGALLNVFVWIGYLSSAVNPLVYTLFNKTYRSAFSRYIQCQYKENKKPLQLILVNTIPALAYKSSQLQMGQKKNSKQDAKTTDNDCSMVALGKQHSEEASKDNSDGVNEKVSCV
hERG channel, sequence (Q12809 whole entry): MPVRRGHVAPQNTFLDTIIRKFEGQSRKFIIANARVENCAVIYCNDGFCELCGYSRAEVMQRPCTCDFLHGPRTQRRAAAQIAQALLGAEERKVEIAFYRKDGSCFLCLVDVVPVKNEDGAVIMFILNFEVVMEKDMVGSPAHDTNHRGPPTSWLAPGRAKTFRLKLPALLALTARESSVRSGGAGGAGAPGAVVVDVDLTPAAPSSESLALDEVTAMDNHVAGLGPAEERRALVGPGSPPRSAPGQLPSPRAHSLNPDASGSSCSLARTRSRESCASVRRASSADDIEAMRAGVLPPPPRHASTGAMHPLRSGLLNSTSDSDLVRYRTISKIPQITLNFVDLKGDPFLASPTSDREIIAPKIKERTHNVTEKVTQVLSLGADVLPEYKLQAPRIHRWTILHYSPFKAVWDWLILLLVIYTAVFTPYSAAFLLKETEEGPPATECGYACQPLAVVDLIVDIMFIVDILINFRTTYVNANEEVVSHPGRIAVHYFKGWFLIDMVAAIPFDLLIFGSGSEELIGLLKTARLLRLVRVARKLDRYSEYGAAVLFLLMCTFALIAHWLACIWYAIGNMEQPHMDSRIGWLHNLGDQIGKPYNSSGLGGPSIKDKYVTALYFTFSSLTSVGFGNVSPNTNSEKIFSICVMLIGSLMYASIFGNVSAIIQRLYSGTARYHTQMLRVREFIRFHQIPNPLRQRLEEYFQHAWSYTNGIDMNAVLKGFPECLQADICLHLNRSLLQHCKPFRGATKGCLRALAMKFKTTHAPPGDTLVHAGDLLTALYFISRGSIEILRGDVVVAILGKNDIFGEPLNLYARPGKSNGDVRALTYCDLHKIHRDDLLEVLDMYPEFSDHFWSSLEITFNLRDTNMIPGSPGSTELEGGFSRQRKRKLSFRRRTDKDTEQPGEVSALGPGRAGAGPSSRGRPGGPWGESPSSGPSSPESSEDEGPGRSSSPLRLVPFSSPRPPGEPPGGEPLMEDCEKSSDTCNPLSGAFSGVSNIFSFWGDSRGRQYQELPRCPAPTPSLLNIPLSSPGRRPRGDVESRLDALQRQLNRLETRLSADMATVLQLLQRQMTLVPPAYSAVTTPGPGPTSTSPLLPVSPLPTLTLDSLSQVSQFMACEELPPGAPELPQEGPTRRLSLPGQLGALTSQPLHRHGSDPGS

IC50 [8] | NFR [9] | Structure (SMILES) | Ki [1] | Ki [2] | EC50 [3] | Emax at 10 µM [3] | Metabolic stability in human hepatic microsome [4] | half-life [5] | IC50 [6] | Ki [7] | D2 Ki/5-HT1A Ki [2] | D2 Ki/5-HT2A Ki [2] | hERG inhibition IC50 (nmol/L)/5-HT1A Ki (nmol/L) [6] | hERG inhibition IC50 (nmol/L)/5-HT2A Ki (nmol/L) [6] | IC50 ([8]; aequorin luminescence)
 |  | Cc1cc2c(cn1)C(=O)N(CCN1CCN(c3noc4ccccc34)CC1)CC2 [Example 3, 2-{2-[4-(1,2-Benzoisoxazol-3-yl)piperazin-1-yl]ethyl}-6-methyl-3,4-dihydro-2,7-naphthyridin-1(2H)-one] | 2.7 nM | 1260 nM | 10.1 nM | 69% | <0.01 mL/min/mg protein | > 1800 min | 7900 nM |  |  |  |  |  | 
6 nM | 1.8 | Cn1cc2c(n1)CCN(CCN1CCN(c3nsc4ccccc34)CC1)C2=O [Example 36, 5-{2-[4-(1,2-Benzoisothiazol-3-yl)piperazin-1-yl]ethyl}-2-methyl-2,5,6,7-tetrahydro-4H-pyrazolo[4,3-c]pyridin-4-one] | 0.45 nM | 903 nM | 2.7 nM | 78% | 0.085 mL/min/mg protein |  | 3200 nM | 0.62 nM | 2007 | 1456 | 7112 | 5162 | 
6.52 nM | 2.2 | Cn1ncc2c1CCCN(CCN1CCC(c3noc4ccccc34)CC1)C2=O [Example 43] | 1.3 nM | 222 nM | 8.5 nM | 73% | <0.01 mL/min/mg protein |  | 2100 nM | 0.93 nM | 171 | 239 | 1630 | 2274 | 
13 nM | 6.6 | Cn1cnc2c1CCN(CCN1CCN(c3nsc4ccccc34)CC1)C2=O [Example 54] |  |  | 38.4 nM | 55% | <0.01 mL/min/mg protein |  | > 10000 nM |  |  |  | >3637 | >1538 | 
9 nM | 1.1 | Cn1ncc2c1C(=O)N(CCN1CCN(c3nsc4ccccc34)CC1)CC2 [Example 59] | 1.99 nM | 125 nM | 8 nM | 61% | 0.173 mL/min/mg protein |  |  | 0.45 nM | 63 | 278 |  |  | 
3.91 nM | 1.5 | Cn1ccc2c1CCN(CCN1CCC(c3noc4ccccc34)CC1)C2=O [Example 60] | 13.7 nM | 260 nM | 43 nM | 54% | 0.018 mL/min/mg protein |  | 700 nM | 1.1 nM | 19 | 236 | 51 | 640 | 
 |  | Cc1cncc2c1CCN(CCN1CCN(c3noc4ccccc34)CC1)C2=O [Example 137] | 186 nM | 1080 nM | 4660 nM | 19% | <0.05 mL/min/mg protein |  | 7700 nM | 11.2 nM | 5.8 | 96.4 | 41 | 686 | 2.4 nM
 |  | Cc1nc2c(o1)C(=O)N(CCN1CCC(c3noc4ccccc34)CC1)CCC2 [Example 154] | 20.2 nM | 718 nM | 45.1 nM | 58% | <0.05 mL/min/mg protein |  | 700 nM | 13.1 nM | 35.6 | 54.9 | 35 | 54 | 316 nM
 |  | Cc1nc2c(o1)CCCN(CCN1CCC(c3noc4ccccc34)CC1)C2=O [Example 157] | 2.12 nM | 641 nM | 52.7 nM | 47% | <0.05 mL/min/mg protein |  | 1600 nM | 14.5 nM | 302.1 | 44.2 | 754 | 110 | 115 nM
 |  | Cn1ccc2c1CCCN(CCN1CCC(c3noc4ccccc34)C1)C2=O (stereo not drawn) [Example 175] | 17.8 nM | 3480 nM | 667 nM | 36% | 0.125 mL/min/mg protein |  | 3500 nM | 13.8 nM | 195.2 | 251.4 | 197 | 253 | 307 nM
 |  | O=C1c2ncoc2CCN1CCN1CCC(c2noc3ccccc23)CC1 [Example 190, 5-{2-[4-(1,2-Benzoisoxazol-3-yl)piperidin-1-yl]ethyl}-6,7-dihydro[1,3]oxazolo[4,5-c]pyridin-4(5H)-one] | 50 nM | 2460 nM | 7210 nM | 11% | <0.05 mL/min/mg protein |  | 1600 nM | 51.4 nM | 49.3 | 47.9 | 32 | 31 | 237 nM

Structure (SMILES) | IC50 [8] | NFR [9] | Ki [1] | Ki [2] | EC50 [3] | Emax at 10 µM [3] | Metabolic stability in human hepatic microsome [4] | half-life [5] | IC50 [6] | Ki [7] | D2 Ki/5-HT1A Ki [2] | D2 Ki/5-HT2A Ki [2] | hERG inhibition IC50 (nmol/L)/5-HT1A Ki (nmol/L) [6] | hERG inhibition IC50 (nmol/L)/5-HT2A Ki (nmol/L) [6] | IC50 ([8]; aequorin luminescence)
O=C1c2nc(Cl)ccc2CCN1CCN1CCC(c2noc3ccccc23)CC1 [Example 146] |  | 2.3 | 3.02 nM | 772 nM | 6.07 nM | 55% | <0.05 mL/min/mg protein |  | 300 nM | 10.7 nM | 255.8 | 72.4 | 99 | 28 | 199 nM
CCc1ccc2c(n1)C(=O)N(CCN1CCC(c3noc4ccccc34)CC1)CC2 [Example 185] |  | 2.4 | 3.26 nM | 1170 nM | 95.3 nM | 52% | <0.05 mL/min/mg protein |  | 700 nM | 28.3 nM | 358.6 | 41.4 | 214 | 25 | 68.7 nM
